Assay results taken from ChEMBL document CHEMBL5550186, “Exploring the Potential of Cyclic Peptidyl Antitumor Agents Derived from Natural Macrocyclic Peptide Phakellistatin 13” (J Med Chem, 2024).
The source made the active and inactive calls. The rule behind the calls is not given here.

How the values were obtained:
HeLa = assay: Antiproliferative activity against human HeLa cells incubated for 48 hrs by MTT assay; assay type: functional, cell-based
MDA-MB-231 = assay: Antiproliferative activity against human MDA-MB-231 cells incubated for 48 hrs by MTT assay; assay type: functional, cell-based; conditions: MDA-MB-231, 48 h
4T1 = assay: Antiproliferative activity against mouse 4T1 cells incubated for 48 hrs by MTT assay; assay type: functional, cell-based; conditions: 4T1, 48 h
HepG2 [1] = assay: Induction of morphological changes in human HepG2 cells assessed as appearance of round morphology at 40 uM measured after 12 to 24 hrs by fluorescence inverted microscopic analysis; assay type: functional, cell-based; conditions: time 12-24 hrs
HepG2 [2] = assay: Induction of morphological changes in human HepG2 cells assessed as appearance of luminous morphology at 40 uM measured after 12 to 24 hrs by fluorescence inverted microscopic analysis; assay type: functional, cell-based; conditions: time 12-24 hrs
HepG2 [3] = assay: Induction of morphological changes in human HepG2 cells assessed as increase in cell death at 40 uM measured after 48 hrs by fluorescence inverted microscopic analysis; assay type: functional, cell-based
HepG2 [4] = assay: Induction of apoptosis in human HepG2 cells assessed as viable cells at 5 uM incubated for 48 hrs by annexin V-FITC/PI staining based flow cytometry analysis (reference value: 99.3%); assay type: functional; conditions: read-out: Activity
HepG2 [5] = assay: Induction of apoptosis in human HepG2 cells assessed as early apoptotic cells at 5 uM incubated for 48 hrs by annexin V-FITC/PI staining based flow cytometry analysis (reference value: 0.50%); assay type: functional
HepG2 [6] = assay: Induction of apoptosis in human HepG2 cells assessed as late apoptotic cells at 5 uM incubated for 48 hrs by annexin V-FITC/PI staining based flow cytometry analysis (reference value: 0.16%); assay type: functional
HepG2 [7] = assay: Induction of apoptosis in human HepG2 cells assessed as necrotic cells at 20 uM incubated for 48 hrs by annexin V-FITC/PI staining based flow cytometry analysis (reference value: 0%); assay type: functional
HepG2 [8] = assay: Induction of cell cycle arrest in human HepG2 cells assessed as accumulation of cells at <2N phase at 10 uM incubated for 12 hrs by PI staining based flow cytometry analysis (reference value: 0.027%); assay type: functional
HepG2 [9] = assay: Induction of cell cycle arrest in human HepG2 cells assessed as accumulation of cells at <2N phase at 10 uM incubated for 24 hrs by PI staining based flow cytometry analysis (reference value: 0.027%); assay type: functional
HepG2 [10] = assay: Induction of cell cycle arrest in human HepG2 cells assessed as accumulation of cells at <2N phase at 20 uM incubated for 48 hrs by PI staining based flow cytometry analysis (reference value: 0.027%); assay type: functional
HepG2 [11] = assay: Induction of cell cycle arrest in human HepG2 cells assessed as assessed as accumulation of cells at 2N phase at 10 uM incubated for 12 hrs by PI staining based flow cytometry analysis (reference value: 26.0%); assay type: functional
HepG2 [12] = assay: Induction of cell cycle arrest in human HepG2 cells assessed as accumulation of cells at 2N phase at 20 uM incubated for 48 hrs by PI staining based flow cytometry analysis (reference value: 26.0%); assay type: functional
HepG2 [13] = assay: Induction of cell cycle arrest in human HepG2 cells assessed as accumulation of cells at S phase at 20 uM incubated for 48 hrs by PI staining based flow cytometry analysis (reference value: 39.6%); assay type: functional
HepG2 [14] = assay: Induction of cell cycle arrest in human HepG2 cells assessed as accumulation of cells at G2/M phase at 10 uM incubated for 48 hrs by PI staining based flow cytometry analysis (reference value: 6.38%); assay type: functional
HepG2 [15] = assay: Induction of cell cycle arrest in human HepG2 cells incubated for 48 hrs by PI staining based flow cytometry analysis; assay type: functional; conditions: dose 5-20 µM
HepG2 [16] = assay: Upregulation of cytochrome c level in human HepG2 cells at 5 to 20 uM measured after 48 hrs by Western blot analysis; assay type: functional, cell-based; conditions: dose 5-20 µM
Cell membrane [17] = assay: Induction of mitochondrial membrane potential loss in human HepG2 cells assessed as decrease in fluorescence measured after 48 hrs by Rhodamine 123 staining based flow cytometry; assay type: cell membranes; conditions: dose 5-20 µM
Cell membrane [18] = assay: Induction of mitochondrial membrane potential loss in human HepG2 cells assessed as decrease in fluorescence at 5 uM measured after 48 hrs by Rhodamine 123 staining based flow cytometry (reference value: 66.8%); assay type: cell membranes; set-up: scale not given: the % may be the effect or the level left
Cell membrane [19] = assay: Induction of mitochondrial membrane potential loss in human HepG2 cells assessed as decrease in fluorescence at 10 uM measured after 12 hrs by Rhodamine 123 staining based flow cytometry (reference value: 66.8%); assay type: cell membranes; set-up: scale not given: the % may be the effect or the level left
Cell membrane [20] = assay: Induction of mitochondrial membrane potential loss in human HepG2 cells assessed as decrease in fluorescence at 10 uM measured after 24 hrs by Rhodamine 123 staining based flow cytometry (reference value: 66.8%); assay type: cell membranes; set-up: scale not given: the % may be the effect or the level left
Cell membrane [21] = assay: Induction of mitochondrial membrane potential loss in human HepG2 cells assessed as decrease in fluorescence at 10 uM by Rhodamine 123 staining based flow cytometry; assay type: cell membranes; conditions: time 12-48 hrs, TDE = time-dependent effect
HepG2 [22] = assay: Induction of apoptosis in human HepG2 cells assessed as increase in number of apoptotic cells at 5 to 10 uM measured after 24 hrs by annexin V-mCherry staining based fluorescence microscopic analysis; assay type: functional, cell-based; conditions: dose 5-10 µM
[23] = target: Voltage-gated inwardly rectifying potassium channel KCNH2 (Homo sapiens, UniProt Q12809); assay: Inhibition of human ERG; assay type: toxicity
Chain of Voltage-gated inwardly rectifying potassium channel KCNH2 (Q12809 whole entry): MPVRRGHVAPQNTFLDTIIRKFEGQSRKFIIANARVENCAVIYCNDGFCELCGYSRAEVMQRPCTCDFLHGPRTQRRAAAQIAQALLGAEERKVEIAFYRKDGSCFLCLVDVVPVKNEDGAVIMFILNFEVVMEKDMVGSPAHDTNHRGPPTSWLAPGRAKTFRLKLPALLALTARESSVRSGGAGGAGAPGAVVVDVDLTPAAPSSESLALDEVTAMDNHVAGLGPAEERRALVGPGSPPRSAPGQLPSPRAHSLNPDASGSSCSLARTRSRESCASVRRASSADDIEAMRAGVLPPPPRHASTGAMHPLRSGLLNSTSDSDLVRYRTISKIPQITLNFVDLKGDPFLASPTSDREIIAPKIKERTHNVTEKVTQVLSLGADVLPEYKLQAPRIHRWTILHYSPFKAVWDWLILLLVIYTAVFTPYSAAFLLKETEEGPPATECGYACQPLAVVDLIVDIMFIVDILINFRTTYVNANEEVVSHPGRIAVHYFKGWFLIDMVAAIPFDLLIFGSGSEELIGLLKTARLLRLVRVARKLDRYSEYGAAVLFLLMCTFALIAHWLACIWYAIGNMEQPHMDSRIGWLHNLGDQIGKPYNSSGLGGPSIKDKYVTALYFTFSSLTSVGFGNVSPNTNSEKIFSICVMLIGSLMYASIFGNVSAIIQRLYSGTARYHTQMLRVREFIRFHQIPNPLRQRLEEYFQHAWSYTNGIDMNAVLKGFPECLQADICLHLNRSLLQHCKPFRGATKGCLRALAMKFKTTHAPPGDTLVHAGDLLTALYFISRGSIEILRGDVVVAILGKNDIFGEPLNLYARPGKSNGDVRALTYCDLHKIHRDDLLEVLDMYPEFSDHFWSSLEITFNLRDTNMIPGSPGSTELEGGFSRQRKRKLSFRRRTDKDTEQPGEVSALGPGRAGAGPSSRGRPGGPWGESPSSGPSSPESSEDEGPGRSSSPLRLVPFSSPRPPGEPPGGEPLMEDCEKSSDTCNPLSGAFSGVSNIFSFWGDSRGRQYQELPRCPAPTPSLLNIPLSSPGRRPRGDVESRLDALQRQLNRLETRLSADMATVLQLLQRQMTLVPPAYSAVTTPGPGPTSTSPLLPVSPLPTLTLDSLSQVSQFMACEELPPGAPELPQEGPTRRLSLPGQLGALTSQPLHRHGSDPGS

[24] = Mutagenicity in Salmonella typhimurium by Ames test; assay type: toxicity; conditions: salmonella enterica subsp. enterica serovar typhimurium
[25] = Toxicity in Balb/c mouse assessed as effect on heart at 6 mg/kg, iv measured after 14 days by H and E staining based analysis; assay type: organism-based; conditions: in vivo, 336 h, time 14 day
[26] = Toxicity in Balb/c mouse assessed as effect on liver at 6 mg/kg, iv measured after 14 days by H and E staining based analysis; assay type: organism-based; conditions: in vivo, 336 h, time 14 day
[27] = Toxicity in Balb/c mouse assessed as effect on spleen at 6 mg/kg, iv measured after 14 days by H and E staining based analysis; assay type: organism-based; conditions: in vivo, 336 h, time 14 day
[28] = Toxicity in Balb/c mouse assessed as effect on kidney at 6 mg/kg, iv measured after 14 days by H and E staining based analysis; assay type: organism-based; conditions: in vivo, 336 h, time 14 day
[29] = Upregulation of […] expression level in human HepG2 cells assessed as fold change by KEGG enrichment analysis; assay type: functional
[30] = Upregulation of NGFR expression level in human HepG2 cells assessed as fold change by KEGG enrichment analysis; assay type: functional
[31] = Upregulation of GADD45A expression level in human HepG2 cells assessed as fold change by KEGG enrichment analysis; assay type: functional
[32] = Upregulation of GADD45B expression level in human HepG2 cells assessed as fold change by KEGG enrichment analysis; assay type: functional
[33] = Upregulation of DUSP6 expression level in human HepG2 cells assessed as fold change by KEGG enrichment analysis; assay type: functional
[34] = Upregulation of SYVN1 expression level in human HepG2 cells assessed as fold change by KEGG enrichment analysis; assay type: functional
[35] = Upregulation of CXCL2 expression level in human HepG2 cells assessed as fold change by KEGG enrichment analysis; assay type: functional
[36] = Effect on MAML3 expression level in human HepG2 cells assessed as fold change by KEGG enrichment analysis; assay type: functional

SMILES: CC(C)C[C@H]1NC(=O)[C@H]([C@@H](C)OCc2ccccc2)NC(=O)[C@H]2CCCN2C(=O)CN2C(=O)c3ccccc3[C@@]2(O)CN(Cc2ccccc2)C(=O)[C@H](Cc2ccccc2)NC(=O)[C@H]2CCCN2C(=O)[C@H](Cc2c[nH]c3ccccc23)NC1=O
- IC50 (HeLa): 16.9 µM
- IC50 (MDA-MB-231): 12.8 µM
- IC50 (4T1): 38.5 µM
- Activity (HepG2 [1]): Active
- Activity (HepG2 [2]): Active
- Activity (HepG2 [3]): Active
- viability at 5 µM (HepG2 [4]): 80.8%
- Activity (HepG2 [5]): 16.8%
- Activity (HepG2 [6]): 2.4%
- Activity (HepG2 [7]): 0.02%
- Activity (HepG2 [8]): 36.2%
- Activity (HepG2 [9]): 35.9%
- Activity (HepG2 [10]): 28.1%
- Activity (HepG2 [11]): 27.8%
- Activity (HepG2 [12]): 21.9%
- Activity (HepG2 [13]): 11.7%
- Activity (HepG2 [14]): 23%
- Activity (HepG2 [15]): Dose-Dependent Effect
- Activity (HepG2 [16]): Active
- Activity (Cell membrane [17]): Dose-Dependent Effect
- Activity (Cell membrane [18]): 41.6%
- Activity (Cell membrane [19]): 55.6%
- Activity (Cell membrane [20]): 45.4%
- Activity (Cell membrane [21]): Tde
- Activity (HepG2 [22]): Active
- inhibition (INH) [23]: Active
- Activity [24]: Non-Toxic
- Activity [25]: Non-Toxic
- Activity [26]: Non-Toxic
- Activity [27]: Non-Toxic
- Activity [28]: Non-Toxic
- fold change (FC) [29]: 1.218
- fold change (FC) [30]: 1.584
- fold change (FC) [31]: 1.519
- fold change (FC) [32]: 1.146
- fold change (FC) [33]: 1.112
- fold change (FC) [34]: 1.048
- fold change (FC) [35]: 1.751
- fold change (FC) [36]: -1.198
